Results published in US20260234139A1, “PGDH INHIBITORS AND METHODS OF MAKING AND USING” (Epirium Bio Inc., priority 2023, published 2026).
pEC50, pIC50: −log10 of the molar value.

What was measured:
15-PGDH/HPGD = target: T1, 15-PGDH/HPGD (Homo sapiens, UniProt P15428); assay: hPGDH inhibitor screening biochemical assay; settings: 10 nM enzyme, 15 μM Prostaglandin E2, 0.25 mM NAD, fluorescence ex/em 340/485 nm
T1 construct: purchased R&D System 5660-DH
T1 sequence (P15428 1-266): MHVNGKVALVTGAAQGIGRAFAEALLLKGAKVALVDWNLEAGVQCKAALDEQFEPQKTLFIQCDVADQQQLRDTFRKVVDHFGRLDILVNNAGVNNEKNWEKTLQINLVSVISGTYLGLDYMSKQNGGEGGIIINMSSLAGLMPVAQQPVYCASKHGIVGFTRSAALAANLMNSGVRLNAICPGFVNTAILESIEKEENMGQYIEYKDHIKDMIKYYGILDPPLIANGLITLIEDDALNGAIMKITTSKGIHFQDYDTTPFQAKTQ
How it was run: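 Recombinant 15-PGDH (10 nM) preincubated with compound 10 min at 37° C, then 15 μM PGE2 and 0.25 mM NAD⁺ added for 10 min at room temperature in 50 mM Tris-HCl pH 7.5, 0.01% Tween 20. NADH fluorescence at ex/em 340/485 nm; 10-point dose response.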

A549 = A549 EC50 (cell assay, method not described); assay type: cell-based; settings: Homo sapiens, A549, A549

SMILES	pIC50 (15-PGDH/HPGD)	pEC50 (A549)
CN(C)C(=O)c1ccc(-n2ncc3cc([C@@H](O)COC4CCC4)cnc32)cc1 [Compound 80B]	≤ 6.00	≤ 6.00
O=C(O)c1ccc(-n2ncc3cc([C@@H](O)COCC4CC4)ccc32)cc1 [Compound 114A]	6.00 to 7.00	≤ 6.00
O=C(O)c1ccc(-n2ncc3cc([C@@H](O)COCC4CC4)cnc32)cc1 [Compound 107A]	> 7.00	> 7.00
O[C@H](COC1CC1)c1cnc2c(cnn2-c2cccc(-c3nnc[nH]3)c2)c1 [Compound 37B]	> 7.00	> 7.00
O=C(O)c1ccc(-n2ncc3cc([C@@H](O)COC4CCC4)cnc32)cc1 [Compound 42A, (R)-4-(5-(2-cyclobutoxy-1-hydroxyethyl)-1H-pyrazolo[3,4-b]pyridin-1-yl)benzoic acid]	> 7.00	≤ 6.00
O[C@H](c1cnc2c(cnn2-c2cccc(-c3nnc[nH]3)c2)c1)C1CC2CC2C1 (stereo partly shown) [Compound 50B]	> 7.00	> 7.00
CC(C)OC[C@@H](O)c1cnc2c(cnn2-c2ccc(CCC(=O)O)cc2)c1 [Compound 69A]	> 7.00	> 7.00
CC(F)(F)[C@@H](O)c1cnc2c(ccn2-c2cccc(-c3nnc[nH]3)c2)c1 [Compound 5A]	> 7.00	> 7.00
CC(C)(O)[C@H](O)c1cnc2c(cnn2-c2cccc(-c3nnc[nH]3)c2)c1 [Compound 33A, (R)-1-(1-(3-(4H-1,2,4-triazol-3-yl)phenyl)-1H-pyrazolo[3,4-b]pyridin-5-yl)-2-methylpropane-1,2-diol]	6.00 to 7.00	≤ 6.00
CC1(C)CC(OC[C@@H](O)c2cnc3c(cnn3-c3ccc(C(=O)O)nc3)c2)C1 [Compound 116B]	> 7.00	≤ 6.00
O[C@@H](c1cnc2c(cnn2-c2cccc(-c3nnc[nH]3)c2)c1)C1C2CCCCC21 (stereo partly shown) [Compound 51B]	6.00 to 7.00	6.00 to 7.00
CC(C)OC[C@H](O)c1cnc2c(cnn2-c2ccc(OCC(=O)O)cc2)c1 [Compound 78A]	6.00 to 7.00	≤ 6.00
O[C@@H](COC1CCC1)c1cnc2c(cnn2-c2cncc(-c3nnc[nH]3)c2)c1 [Compound 117A]	> 7.00	> 7.00
CCOC1([C@H](O)c2cnc3c(cnn3-c3ccc(C(=O)O)cc3)c2)CC1 [Compound 58A]	≤ 6.00	≤ 6.00
C[S+]([O-])c1cccc(-n2ncc3cc([C@H](O)COC4CCC4)cnc32)c1 (stereo partly shown) [Compound 125B]	≤ 6.00	≤ 6.00
C[C@H](OC1CCC1)[C@@H](O)c1cnc2c(cnn2-c2ccc(C(=O)O)cc2)c1 [Compound 108D]	> 7.00	6.00 to 7.00
CCOC[C@@H](O)c1cnc2c(cnn2-c2cccc(-c3nnc[nH]3)c2)c1 [Compound 23B]	> 7.00	> 7.00
O=C(O)[C@@H]1CCN(c2ccc(-n3ncc4cc([C@H](O)COC5CCC5)cnc43)cc2)C1 [Compound 87B]	6.00 to 7.00	6.00 to 7.00
O[C@H](COC1CCC1)c1cnc2c(cnn2-c2ccc(N3CCCC3)cc2)c1 [Compound 75A]	6.00 to 7.00	6.00 to 7.00
O[C@H](c1cnc2c(cnn2-c2cccc(-c3nnc[nH]3)c2)c1)[C@@H]1CCOC1 [Compound 68D]	> 7.00	6.00 to 7.00
C[S+]([O-])c1cccc(-n2ncc3cc([C@@H](O)COC4CCC4)cnc32)c1 (stereo partly shown) [Compound 125A]	6.00 to 7.00	6.00 to 7.00
O[C@@H](COC1CCC1)c1cnc2c(cnn2-c2ccc(N3CCOCC3)cc2)c1 [Compound 76A]	6.00 to 7.00	≤ 6.00
CSc1ccc(-n2ncc3cc([C@H](O)COC4CCC4)cnc32)cc1 [Compound 119B]	≤ 6.00	≤ 6.00
